Test results taken from ChEMBL document CHEMBL1149134, “2-aminothiazole-derived opioids. Bioisosteric replacement of phenols” (J Med Chem, 2004).

Columns and labels:
[1] = target: T1, Kappa-type opioid receptor (Homo sapiens, UniProt P41145); parameters: species or system Cricetulus griseus
Description: Inhibition of [3H]U-69593 binding to Opioid receptor kappa 1 of Chinese hamster ovary membrane

[2] = target: Delta-type opioid receptor (Homo sapiens, UniProt P41143); assay: Inhibition of [3H]naltrindole binding to opioid receptor delta 1 of Chinese hamster ovary membrane; parameters: species or system Cricetulus griseus
[3] = target: T2, Mu-type opioid receptor (Homo sapiens, UniProt P35372); parameters: species or system Cricetulus griseus
Description: Inhibition of [3H]-DAMGO binding to Opioid receptor mu 1 of Chinese hamster ovary membrane

[4] = target: T1, Kappa-type opioid receptor; assay: Binding ability against kappa opioid receptor by stimulating the [35S]GTP-gamma-S, radioligand in Chinese hamster ovary membranes; assay type: functional, cell membranes; settings: Cricetulus griseus
[5] = target: T1, Kappa-type opioid receptor; assay: Agonistic activity against kappa opioid receptor in Chinese hamster ovary membranes; assay type: functional, cell membranes, Cricetulus griseus
[6] = target: T2, Mu-type opioid receptor
Description: Agonistic activity against Opioid receptor mu 1 in Chinese hamster ovary membranes

T1 sequence (P41145 whole entry): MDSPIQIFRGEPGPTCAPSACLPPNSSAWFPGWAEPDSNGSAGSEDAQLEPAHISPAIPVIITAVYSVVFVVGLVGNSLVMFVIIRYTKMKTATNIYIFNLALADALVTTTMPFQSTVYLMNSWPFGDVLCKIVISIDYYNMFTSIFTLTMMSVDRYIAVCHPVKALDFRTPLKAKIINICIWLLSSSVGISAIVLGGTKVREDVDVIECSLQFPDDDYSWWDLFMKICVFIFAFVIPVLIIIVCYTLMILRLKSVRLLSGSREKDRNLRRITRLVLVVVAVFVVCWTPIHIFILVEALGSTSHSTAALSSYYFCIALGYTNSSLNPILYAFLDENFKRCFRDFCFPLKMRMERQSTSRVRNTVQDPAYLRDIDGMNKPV
T2 sequence (P35372 whole entry): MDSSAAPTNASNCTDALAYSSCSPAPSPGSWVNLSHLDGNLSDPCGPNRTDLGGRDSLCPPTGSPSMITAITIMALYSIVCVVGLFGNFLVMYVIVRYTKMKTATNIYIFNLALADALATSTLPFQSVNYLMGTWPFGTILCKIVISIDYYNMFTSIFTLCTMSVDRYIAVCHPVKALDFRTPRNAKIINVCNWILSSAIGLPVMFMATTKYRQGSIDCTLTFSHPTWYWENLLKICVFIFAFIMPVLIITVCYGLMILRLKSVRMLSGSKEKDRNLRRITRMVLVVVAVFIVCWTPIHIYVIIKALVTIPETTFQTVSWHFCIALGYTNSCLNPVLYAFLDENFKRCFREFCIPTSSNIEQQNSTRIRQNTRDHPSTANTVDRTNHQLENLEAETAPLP
Sequence of Delta-type opioid receptor (P41143 whole entry): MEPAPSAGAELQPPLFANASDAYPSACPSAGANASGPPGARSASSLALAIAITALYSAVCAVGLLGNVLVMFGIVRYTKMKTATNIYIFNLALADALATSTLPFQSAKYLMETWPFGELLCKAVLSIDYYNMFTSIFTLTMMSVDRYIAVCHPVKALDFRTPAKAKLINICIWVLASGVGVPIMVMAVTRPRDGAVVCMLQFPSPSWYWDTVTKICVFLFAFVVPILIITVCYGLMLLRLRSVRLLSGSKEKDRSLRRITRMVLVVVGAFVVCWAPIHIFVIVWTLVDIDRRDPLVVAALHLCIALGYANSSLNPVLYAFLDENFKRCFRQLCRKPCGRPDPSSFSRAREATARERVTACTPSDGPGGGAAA

With CN1CC[C@]23CCCC[C@H]2[C@H]1Cc1cc2sc(N)nc2cc13 (stereo in doubt; 4) the Ki [1] was 6.4 nM, the Ki [2] was 190 nM and the Ki [3] was 1.1 nM.
For C[C@H]1[C@H]2Cc3cc4sc(N)nc4cc3[C@]1(C)CCN2CC1CC1, the Ki [1] was 6.7 nM, the Ki [2] was 940 nM and the Ki [3] was 48 nM.
In the case of Nc1nc2cc3c(cc2s1)C(=O)[C@@H]1C2CCCC[C@]32CCN1CC1CCC1 (some centres not stated), the Ki [1] is reported as 13 nM, the Ki [2] is reported as > 10000 nM and the Ki [3] is reported as 200 nM.
In the case of Nc1nc2cc3c(cc2s1)C[C@@H]1[C@@H]2CCCC[C@]32CCN1CC1CCC1, the Emax [4] is reported as 80% and the EC50 [5] is reported as 29 nM.
C[C@H]1[C@H]2Cc3cc4sc(N)nc4cc3[C@]1(C)CCN2CC1CCC1 gave a Ki [1] of 0.49 nM, a Ki [2] of 93 nM and a Ki [3] of 8.3 nM.
Work on Nc1nc2cc3c(cc2s1)C[C@@H]1[C@@H]2CCCC[C@]32CCN1CC1CC1 yielded an Emax [4] of 80%, an EC50 [5] of 2.4 nM and an EC50 [6] of 73 nM.
CN1CC[C@]23c4c5cc6sc(N)nc6c4O[C@H]2[C@@H](O)CCC3[C@H]1C5 (some centres not stated) gave a Ki [1] of 220 nM, a Ki [2] of 32 nM and a Ki [3] of 30 nM.
With C[C@H]1C2Cc3ccc(O)cc3[C@]1(C)CCN2CC1CC1 the Ki [1] was 0.18 nM and the Ki [2] was 1.1 nM.
